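96-well plates; 48 h exposure; 5 concentrations. Endpoints by linear interpolation between flanking doses. Not reached: highest tested concentration assigned. Definition used: TGI = concentration required for complete inhibition of growth.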

Some test systems named below: SN12C renal; SR leukemia; HCC-2998 colon; SNB-75 CNS; SNB-19 CNS; NCI-H23 lung; NCI-H522 lung; KM12 colon; MDA-MB-435; DU-145 prostate; HCT-15 colon; MDA-MB-231 breast.
Holding throughout (assay): growth of human tumour cells (NCI), 48 h

Take `N#CCCN(c1ccc(C=Nc2cccc([N+](=O)[O-])c2)cc1)S(=O)(=O)c1ccccc1`: the TGI in the assay on SN12C renal, with SR leukemia, with HCC-2998 colon, in the assay with SNB-75 CNS, with SNB-19 CNS and in the assay with NCI-H23 lung was above 100 µM in each case. The TGI in the assay on NCI-H522 lung and with KM12 colon was above 100 µM each time.

As to `COc1cc2c(cc1OCCCCCOc1cc3c(cc1OC)C(=O)N1CCC[C@H]1C(=O)N3)N=C[C@@H]1CCCN1C2=O`, the TGI in the assay with HCC-2998 colon was 20.9 µM; with SNB-75 CNS, 0.0588 µM; in the assay with MDA-MB-435 it was 0.284 µM; in the assay with SNB-19 CNS it was above 100 µM; with DU-145 prostate it was above 100 µM; in the assay on NCI-H23 lung it was 1.89 µM. Further, the results for the TGI in the assay with NCI-H522 lung, in the assay with KM12 colon and in the assay on HCT-15 colon were 0.0419 µM, 37.1 µM and above 100 µM, respectively.

As to `O=C1CC2(C[C@@H]3CCCCCCCCC[C@@H](C3)C2)N1` (some centres undefined), the TGI in the assay on SN12C renal came out at 30.8 µM; in the assay on SR leukemia it was 30.7 µM; with HCC-2998 colon, 31.9 µM; in the assay on SNB-75 CNS it was 20.6 µM; in the assay on SNB-19 CNS, 34.6 µM; in the assay with NCI-H23 lung, 31.3 µM. The results for the TGI in the assay with NCI-H522 lung, with KM12 colon and with HCT-15 colon were 33.1 µM, 34.6 µM and 34 µM, respectively.

Turning to `CCCN=C1CC(C)Nc2ccccc2N1` (centres undefined), the TGI in the assay with SN12C renal, in the assay with SNB-75 CNS, in the assay on MDA-MB-435, in the assay on SNB-19 CNS, with DU-145 prostate and in the assay with NCI-H23 lung was above 100 µM in each case. Besides, the TGI in the assay with NCI-H522 lung, in the assay on MDA-MB-231 breast, in the assay on KM12 colon and in the assay on HCT-15 colon was above 100 µM in each case.

`O=C(Cc1nc2ccc(C(=O)c3ccccc3)cc2[nH]c1=O)C(=O)Nc1ccc(Br)cc1`: the TGI in the assay on SN12C renal, with SNB-75 CNS, in the assay on MDA-MB-435, with NCI-H23 lung, in the assay on NCI-H522 lung and with MDA-MB-231 breast was above 100 µM each time. In addition, the TGI in the assay with KM12 colon and in the assay with HCT-15 colon was above 100 µM throughout.

Consider `COC(=O)c1cc(CC(C)C)c2c(c1)[nH]c1ccccc12`, for which the TGI in the assay with SN12C renal, in the assay with HCC-2998 colon, in the assay on SNB-75 CNS, with SNB-19 CNS, in the assay on NCI-H23 lung and in the assay on NCI-H522 lung was above 100 µM each time. In addition, the TGI in the assay on KM12 colon and in the assay on HCT-15 colon was above 100 µM throughout.

Consider `[N-]=[N+]=Nc1c(Cl)c(=O)n(-c2ccccc2)c2ccccc12`, for which the TGI with SN12C renal was 51.2 µM; in the assay with SR leukemia, above 100 µM; in the assay on HCC-2998 colon, 42.7 µM; in the assay with SNB-75 CNS, 50.8 µM; with MDA-MB-435 it was 35 µM; in the assay with SNB-19 CNS, above 100 µM. The TGI in the assay with DU-145 prostate is above 100 µM; with NCI-H23 lung, 36.7 µM; in the assay with KM12 colon, above 100 µM; in the assay on HCT-15 colon it was 43.7 µM.

For the compound `CC(C)(C)OC(=O)NC(C)(C)C(=O)NCCC(=O)O`, the TGI with SN12C renal, in the assay with SNB-75 CNS, in the assay on MDA-MB-435, in the assay on SNB-19 CNS, in the assay with NCI-H23 lung and in the assay with NCI-H522 lung was above 100 µM throughout. The TGI in the assay with MDA-MB-231 breast, in the assay with KM12 colon and with HCT-15 colon was above 100 µM in each case.

As for `CC(C)C(Sc1nc(-c2ccccc2)c(-c2ccccc2)[nH]1)C(=O)NNC(=S)Nc1ccccc1` (centres undefined), the TGI came out at 33.8 µM in the assay on SN12C renal; 64.2 µM with SR leukemia; 17.6 µM with HCC-2998 colon; 53.6 µM in the assay on SNB-75 CNS; 58.6 µM in the assay with SNB-19 CNS; 37.2 µM in the assay with NCI-H23 lung. Further, the values for the TGI with NCI-H522 lung, in the assay with KM12 colon and in the assay with HCT-15 colon were 21.5 µM, 28.9 µM and 33.8 µM, respectively.

Turning to `CCOC(=O)C(OCC1CC=CCC1)Sc1ccccc1` (centres undefined), the TGI in the assay with SN12C renal, in the assay on SR leukemia, in the assay on HCC-2998 colon, in the assay on SNB-75 CNS, in the assay with SNB-19 CNS and with NCI-H23 lung was above 100 µM throughout. Besides, the TGI with NCI-H522 lung, in the assay on KM12 colon and in the assay with HCT-15 colon was above 100 µM in each case.

Regarding `CCSc1nnc(CSc2nc(-c3ccccc3)c(-c3ccccc3)[nH]2)n1-c1ccccc1`, the TGI in the assay on SN12C renal was determined as 29.7 µM; with SR leukemia, 48.5 µM; in the assay on HCC-2998 colon it was 36.5 µM; in the assay with SNB-75 CNS, 42.9 µM; with SNB-19 CNS, 34.2 µM; in the assay with NCI-H23 lung, 40.8 µM. For the same compound, the TGI is 30.5 µM in the assay with NCI-H522 lung, 32.1 µM in the assay with KM12 colon and 36 µM with HCT-15 colon.

On to `CC12CC(c3ccccc3O1)C(C(=O)Nc1ccc(F)cc1)C(=O)N2` (centres undefined), for which the TGI with SR leukemia, with HCC-2998 colon, with MDA-MB-435, in the assay on SNB-19 CNS, with DU-145 prostate and in the assay with NCI-H23 lung was above 100 µM each time. The TGI in the assay on NCI-H522 lung, with KM12 colon and in the assay on HCT-15 colon was above 100 µM throughout.

Take `CCOC(=O)C1=C(C)N(c2ccccc2)C2=C(C(=O)N(c3ccccc3)C2c2ccccc2)C1c1ccccc1` (centres undefined): the TGI in the assay with SN12C renal, in the assay on SR leukemia, in the assay with HCC-2998 colon, with SNB-75 CNS, with SNB-19 CNS and in the assay on NCI-H23 lung was above 100 µM each time. The TGI in the assay on NCI-H522 lung and with KM12 colon was above 100 µM each time.

Turning to `COc1ccc(/C(=C/n2ccnc2)C(=O)c2ccc(OC)c(OC)c2)cc1`, the TGI in the assay on SN12C renal, in the assay on SR leukemia, with HCC-2998 colon, with SNB-75 CNS, with SNB-19 CNS and in the assay on NCI-H23 lung was above 100 µM throughout. Also, the TGI with NCI-H522 lung, in the assay with KM12 colon and with HCT-15 colon was above 100 µM each time.
